Source: BindingDB's records for doi:10.1016/S0960-894X(97)00285-0 (1997)
Where a name gives a salt, the structure may show the parent alone.

Target: Prostate-specific antigen (Homo sapiens) (UniProt P07288)
Assay: Concentration required for inhibition of 50% of the cleavage of para-nitroanilide from MeO-Suc-Arg-Pro-Tyr-pNA.HCl by Prostate specific antigen PSA

Prostate-specific antigen (Homo sapiens), sequence (P07288 whole entry, looked up): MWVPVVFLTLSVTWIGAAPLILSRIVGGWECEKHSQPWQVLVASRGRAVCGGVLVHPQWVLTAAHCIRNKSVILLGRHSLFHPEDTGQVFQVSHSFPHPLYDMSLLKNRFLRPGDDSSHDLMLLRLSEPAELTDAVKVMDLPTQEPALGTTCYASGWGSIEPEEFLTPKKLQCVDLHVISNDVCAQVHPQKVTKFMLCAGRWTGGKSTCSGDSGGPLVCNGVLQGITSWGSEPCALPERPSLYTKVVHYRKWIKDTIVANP

| IC50 [µM] | SMILES |
| --- | --- |
| 1.34 | NCc1ccc(COC(=O)[C@@H]2[C@H](Cc3ccccc3)C(=O)N2C(=O)Cc2cccc(C(=O)O)c2)cc1 [(2S,3S)-3-Benzyl-1-[2-(3-carboxy-phenyl)-acetyl]-4-oxo-azetidine-2-carboxylic acid 4-aminomethyl-benzyl ester; TFA] |
| > 30 | O=C(O)c1ccc(COC(=O)[C@@H]2[C@H](Cc3ccccc3)C(=O)N2C(=O)Cc2cccc(C(=O)O)c2)cc1 [3-Benzyl-1-[2-(3-carboxy-phenyl)-acetyl]-4-oxo-azetidine-2-carboxylic acid 4-carboxy-benzyl ester] |
